Biological target: T1, α-amylase (Homo sapiens, UniProt P04746)
T1 sequence (P04746 16-511): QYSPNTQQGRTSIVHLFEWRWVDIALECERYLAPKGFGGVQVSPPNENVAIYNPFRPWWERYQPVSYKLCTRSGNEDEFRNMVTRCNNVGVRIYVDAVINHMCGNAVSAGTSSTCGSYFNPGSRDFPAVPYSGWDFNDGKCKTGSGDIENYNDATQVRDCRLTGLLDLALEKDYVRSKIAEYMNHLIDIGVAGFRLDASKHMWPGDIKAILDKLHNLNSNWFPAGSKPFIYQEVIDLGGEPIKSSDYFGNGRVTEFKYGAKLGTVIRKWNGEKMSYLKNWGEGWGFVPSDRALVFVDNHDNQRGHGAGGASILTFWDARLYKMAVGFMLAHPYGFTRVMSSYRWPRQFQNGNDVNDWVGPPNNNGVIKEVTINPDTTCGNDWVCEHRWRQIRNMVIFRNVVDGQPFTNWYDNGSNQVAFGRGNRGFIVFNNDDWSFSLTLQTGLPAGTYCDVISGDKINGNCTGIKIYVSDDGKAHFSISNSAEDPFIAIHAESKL
Assay: in vitro α-amylase inhibitory activity
Type: biochemical
Procedure: The test samples were added in alpha-amylase solution. The enzyme solution was prepared with enzyme and buffer solution. The mixture of the samples and enzyme was then incubated. Then, starch and dinitrosalicylic acid solution was added. The same was performed for both test compounds and the standard drug. […] The percent alpha-amylase inhibition activity and its IC50 values were calculated and confirmed as per the previous procedure.

## CC(C)(C=C1SC(=O)N(C(=O)CN2CCOCC2)C1=O)C1CC(=O)N(Cc2ccccc2)C1=O (stereo not drawn) [10d]
  IC50: 12 µM
31.25 µM, read-out: % α-Amylase Inhibition (converted)
  inhibition at 31.25 µM: 68.6%
62.5 µM, read-out: % α-Amylase Inhibition (converted)
  inhibition at 62.5 µM: 70%
125 µM, read-out: % α-Amylase Inhibition (converted)
  inhibition at 125 µM: 72.7%
250 µM, read-out: % α-Amylase Inhibition (converted)
  inhibition at 250 µM: 76.3%
500 µM, read-out: % α-Amylase Inhibition
  inhibition at 500 µM: 82.3 ± 1.2%

Source: publication PMC9918900, “New Succinimide–Thiazolidinedione Hybrids as Multitarget Antidiabetic Agents: Design, Synthesis, Bioevaluation, and Molecular Modelling Studies” (Molecules, 2023)
